Assay results reported in patent US20030091585A1, “Vaccine composition containing a promoter peptide” (priority 2001, published 2003).

How the values were obtained:
[1] = system: test mice (6-8-week-old athymic nu/nu on a BALB/c background); assay: Quantity of anti-E2 antibody (ELISA) in blood of mice injected with vaccine; format: in vivo; settings: when used together with alum; E2 protein antigen
Protocol: 5 μg of E2 protein antigen obtained in Reference Example was dissolved in 150 μl of PBS (pH 7.2), and 7 μg of the peptide of sequence of SEQ ID NO: 1 synthesized using a conventional peptide synthesis method (Houghten, R. A. et al., Nature, 354, 84(1991)) was added thereto together with alum to obtain a vaccine.
The vaccine thus obtained was injected subcutaneously into test mice (6-8-week-old athymic nu/nu on a BALB/c background). After 5 weeks, a booster injection was carried out, and after another 2 weeks, blood samples were taken from the mice.
For comparison, three different vaccine compositions were also tested as above. These comparative controls were: a vaccine containing E2 protein and alum; a vaccine containing E2 protein and the peptide of sequence of SEQ ID NO: 1; and a vaccine containing alum and the peptide of sequence of SEQ ID NO: 1. The peptides used in this Example include the D-Met residue of SEQ ID NO: 1 having CONH2 substituted for the carboxyl group. […]
Thereafter, 80 μl/well of color former (ABSI (Chemicon®)) were added to each of the 96-wells of the plate, and they were incubated at room temperature for 20 minutes. After the reaction, the O.D. of each well was determined at the wavelength of 405 nm with an ELISA reader.

[2] = system: monocytes, B-lymphocytes, and neutrophils; settings: cited from earlier work
[3] = system: human B-lymphocyte cell line U266; settings: cited from earlier work
[4] = system: specific receptor protein in the cell membrane of the U266 cell line; settings: cited from earlier work
neutrophils = settings: stimulated neutrophils; cited from earlier work
human neutrophils = settings: cited from earlier work
phospholipase C (PLC) = settings: in B-lymphocytes; cited from earlier work

Substance: Trp Lys Tyr Met Val Met [peptide of SEQ ID NO: 1]
- effect of promoting the vaccination efficiency [1]: remarkable synergistic effect
- activation of monocytes, B-lymphocytes, and neutrophils [2]: activates
- intracellular calcium [Ca2+]I release [3]: induces
- binding with receptor, activation of the cellular signal pathway [4]: binding with a specific receptor protein
- production of active oxygen species (neutrophils): increase
- chemotaxis (human neutrophils): induces chemotaxis
- activity of phospholipase C (PLC) (phospholipase C (PLC)): enhances
